Test results published in patent US10646529B2, “Methods of obtaining natural products from the comestible fluids and methods of use” (BOARD OF TRUSTEES, RUTGERS, THE STATE UNIVERSITY OF NEW …, priority 2010, dated 2020).

Columns and labels:
Assay type in all cases: physicochemical
[1] = Sorption of 6-gingerol to full-fat soybean flour (HPLC-MS peak area); conditions: 6-gingerol 9 μg/ml in water, full-fat soybean flour 30 g/L, 10 ml, 5 minutes
Experimental: 6-Gingerol (Sigma) was diluted in water to a concentration of 9 μg/ml. Full-fat soybean flour was added to the solution at a concentration of 30 g/L in a volume of 10 ml, mixed for 5 minutes and then centrifuged for 10 minutes at 4000 rpm. The supernatant was removed. Full-fat soybean flour was used as a control. Both the 6-gingerol solution before soybean flour treatment (i.e., plant juice) and that obtained after soybean flour treatment (i.e., plant liquor) were subjected to HPLC-MS; the injection volume for each sample was 10 μl.

[2] = Sorption of quercetin from grape juice by soybean flour (HPLC-MS); conditions: 5 minutes, n=1; for % Quercetin Sorbed to SF / Concentration of Quercetin in Soybean flour: Concord grape juice 50 mL, soybean flour 30 g/L
Experimental: Soybean flour (30 g/L) was added to 50 mL of Concord grape juice and mixed at room temperature for five minutes. The juice was separated from the flour by centrifugation and then filtered through a 0.22 μm syringe filter. Untreated and soybean flour-treated juice samples (n=1) were processed as described in Example 8 and the quercetin content of untreated and soybean flour-treated samples was determined by HPLC-MS. Quercetin is a polyphenolic flavonoid compound. More specifically, it is a flavonol known in the art to have anti-inflammatory and antioxidant properties, and it is expected to be useful in treating cancer. Quercetin is also known to have endurance-promoting effects.

[3] = Sorption of sesquiterpene lactones from chicory root extract to defatted soybean flour (HPLC-MS peak area); conditions: chicory root water extract 50 ml, defatted soybean flour 100 g/L, 5 minutes
Experimental: Dried chicory root was ground to a powder and 25 g was extracted in 500 ml of water for three hours in a 50° C. water bath with sonication. The water extract was separated from the plant material by filtration. Defatted soybean flour was mixed for 5 minutes with 50 ml of the chicory root extract at a concentration of 100 g/L followed by centrifugation (10 minutes, 15,000 rpm) and filtration of the supernatant. Untreated and soybean flour-treated chicory root extract were subjected to HPLC-MS; the injection volume for each sample was 10 μl. The amounts of the dihydrolactucin, lactucopicrin and dihydrolactucopicrin compounds present in the chicory root extract sorbed to the soybean flour were determined by calculating the percent decrease in peak area before and after treatment of the chicory extract with soybean flour.

[4] = Sorption of resveratrol from grape juice by soybean flour (HPLC-MS)
Experimental: Soybean flour (30 g/L) was added to 50 mL of Concord grape juice and mixed at room temperature for five minutes. The juice was separated from the flour by centrifugation and then filtered through a 0.22 μm syringe filter. The resveratrol content of the untreated and flour-treated juice samples (n=1) was quantified by HPLC-MS according to a previously published method (Wang et al., J. Agric. Food Chem., 50:431-435, 2002, the disclosure of which is incorporated herein by reference in its entirety.).
The enriched substance was prepared as follows. Briefly, 2 ml of untreated or soybean flour-treated grape juice sample was mixed with 20 ml of methanol overnight and samples were then centrifuged at 2280 g for 5 minutes and the methanol portion was removed. The solid residue was washed with an additional 10 ml of methanol. Methanol supernatants were combined and evaporated using a rotary evaporator and the methanol-free samples were diluted in 10 ml of water for enzymatic hydrolysis with 30 mg β-D-glucosidase (2.3 units/mg). Each sample was then extracted four times with 7 ml of water-saturated ethyl acetate. Ethyl acetate extracts were combined and evaporated to dryness under vacuum using a rotary evaporator. Residues were dissolved in 1 ml of methanol/0.5% formic acid (7:3; v/v) for LC-MS analysis. Standards of resveratrol were prepared for LC-MS to generate standard curves and quantify the levels of each compound in juice samples.

[5] = Sorption of caffeine from green tea by defatted soybean flour (HPLC-MS); conditions: green tea after SFDF 30 g/L, n=1
Experimental: The amount of caffeine in the untreated and soybean flour-treated tea samples (n=1) was also tested. […] Caffeine is a psychoactive stimulant that provides health benefits beyond the familiar increase in alertness and energy associated with coffee and tea consumption. The untreated and flour-treated tea samples described above were diluted 10 times in 0.1% acetic acid (1 μL glacial acetic acid and 1 mL water). Samples were subject to HPLC-MS and caffeine was quantified against a caffeine standard curve.

[6] = Concord grape juice 50 mL, soybean flour 30 g/L, 5 minutes, n=1

**Q.** With `CCCCC[C@H](O)CC(=O)CCc1ccc(O)c(OC)c1` [6-gingerol, 6-Gingerol] as the molecule, how does the “% of 6-gingerol sorbed by soybean flour (percent decrease in peak area)” value [1] read?
**A.** 63%

**Q.** What does the source list for `O=c1c(O)c(-c2ccc(O)c(O)c2)oc2cc(O)cc(O)c12` [Quercetin]?
**A.** Quercetin in Grape Juice ([2]; Concord grape juice 50 mL after soybean flour 30 g/L): 519 ng/mL; % Quercetin Sorbed to SF [2]: 74%; Concentration of Quercetin in Soybean flour [2]: 49.3 µg/g; % Quercetin Sorbed to SF ([2]; listed as quercetin): about 74%; Concentration of Quercetin in Soybean flour ([2]; listed as quercetin): approximately 49.3 μg/g

**Q.** Which “% of compound sorbed by soybean flour from chicory root extract (percent decrease in peak area)” value [3] does the source give for `CC1=C2C(=O)C=C(CO)[C@@H]2[C@H]2OC(=O)[C@@H](C)[C@@H]2[C@H](OC(=O)Cc2ccc(O)cc2)C1` [dihydrolactucopicrin] here?
**A.** 80%

**Q.** Which “% of compound sorbed by soybean flour from chicory root extract (percent decrease in peak area)” value [3] does the source give for lactucopicrin here?
**A.** 100%

**Q.** With `Oc1ccc(C=Cc2cc(O)cc(O)c2)cc1` [Resveratrol] as the molecule, how does the “Bound resveratrol (amount)” value ([4]; 1.5 g soybean flour in 50 mL grape juice) read?
**A.** 88.8 mg

**Q.** What about the “Resveratrol in Grape Juice” value ([4]; Concord grape juice 50 mL after soybean flour 30 g/L, 5 minutes, n=1) of the same molecule?
**A.** 325 ng/mL

**Q.** What about the “% Resveratrol Sorbed to SF” value [4, 6] of the same molecule?
**A.** 85%

**Q.** And the “Concentration of Resveratrol in SF” value [4, 6]?
**A.** 59.2 µg/g

**Q.** With `Cn1c(=O)c2c(ncn2C)n(C)c1=O` [caffeine] as the molecule, how does the “Caffeine Concentration” value [5] read?
**A.** 383.1 mg/L
